Assay [1] concerns MCF7. The assay is described as follows: Cytotoxicity against human MCF7 cells at 50 umol/L. In kind it is functional, cell-based.
Assay [2] has as its system HepG2. The assay is described as follows: Cytotoxicity against human HepG2 cells at 50 umol/L. Type of assay: functional, cell-based.
Another assay relates to HMO2. The assay is described as follows: Cytotoxicity against human HMO2 cells at 50 umol/L. In kind it is functional, cell-based.
A short description of assay [3]: Cytotoxicity against human HMO2 cells. In kind it is functional.
The test system of assay [4] is MCF7. The assay is described as follows: Cytotoxicity against human MCF7 cells. In kind it is functional.
The nature of assay [5]: Cytotoxicity against human KATO III cells. In kind it is functional, KATO III cell.
Assay [6] concerns HepG2. The assay is described as follows: Cytotoxicity against human HepG2 cells. Type of assay: functional.

The text below walks through data of ChEMBL document CHEMBL1150219, “New co-metabolites of the streptazolin pathway” (2001).

SMILES strings stand for the structures. Active and inactive are the calls of the source. The calls are words filed in the database; no cut-off is given here.

As a reminder, the GI50 is the concentration that inhibits growth by half. As usually defined, the TGI is the concentration giving total growth inhibition.

Turning to `C/C=C1/C2=CCCN3C(=O)O[C@H]([C@H]1O)[C@H]23`, the result in the assay on MCF7 [1], in the assay on HepG2 [2] and in the assay on HMO2 was inactive.

As for `C/C=C1/C2=CCCN3C(=O)O[C@H]([C@H]1O[C@@H]1OC[C@@H](O)[C@H](O)[C@H]1O)[C@H]23`, the concentration for 50% growth inhibition (GI50) in assay [3] is 150 nM; with MCF7 [4], 10000 nM; in assay [5], 700 nM; with HepG2 [6], 300 nM. For the same molecule, the concentration for total growth inhibition (TGI) was above 50000 nM in assay [3], 30000 nM with MCF7 [4], 1000 nM in assay [5] and 5000 nM in the assay on HepG2 [6].
